Measurements reported in patent US12037419B2 (The Feinstein Institutes for Medical Research, priority 2016, dated 2024).

Experiments:
HMGB1 = target: T1, HMGB1 (Homo sapiens, UniProt P09429); test: SPR assay of HMGB1 and C1q binding, including redox states of HMGB1
T1 construct: made in house
T1 sequence (P09429 1-215): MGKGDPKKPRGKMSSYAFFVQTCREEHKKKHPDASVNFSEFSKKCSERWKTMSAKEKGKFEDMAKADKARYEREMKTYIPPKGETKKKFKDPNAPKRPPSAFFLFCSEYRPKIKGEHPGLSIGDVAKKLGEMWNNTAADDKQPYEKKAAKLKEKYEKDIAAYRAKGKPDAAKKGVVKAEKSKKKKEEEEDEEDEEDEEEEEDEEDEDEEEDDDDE
Description: Surface Plasmon Resonance analysis (SPR): For real-time binding interaction studies, a BIAcore T200 instrument (GE Healthcare) was used. […] A 1:1 mixture of N-hydroxysuccinimide and N-ethyl-N-(dimethyaminopropyl) carbodiimide was used to activate 2 flow-cells of the CMS chip. […] The analytes were diluted in 1×PBS+0.01% (vol/vol) tween-20 buffer. The analytes were sequentially injected at a flow rate of 30 μl/min for 60 s at 25° C. The KD was dertermined using the BIAcore evaluation software 2.0 (GE Healthcare) supposing a 1:1 binding ratio.
A 1:1 mixture of N-hyrdoxysuccinimide and N-ethyl-N-(dimethyaminopropyl) carbodiimide was used to activate 2 flow-cells of the CMS chip. […] The analyte (HMGB1) was diluted in 1×HBS-N+0.05% tween-20 buffer (filtered—0.22 um). Three redox states of HMGB1 were sequentially injected at a flow rate of 20 μl/min for 60 s at 25° C., the dissociation time was set for 3 minutes. The concentration was set at 500 nM.
The analytes were diluted in 1×HBS-N+0.05% tween-20 buffer (filtered—0.22 um). The analytes were sequentially injected at a flow rate of 20 μl/min for 60 s at 25° C. The dissociation time was set for 3 minutes. The KD for each analyte was determined using the Biacore evaluation software 2.0 supposing a 1:1 binding ratio.

[1] = target: T2, LAIR-1 and RAGE in lipid rafts (Homo sapiens, UniProt Q15109+Q6GTX8); test: Lipid raft fractionation and Western blot; assay type: cell-based; conditions: in the presence of HMGB1 and C1q
T2 construct: endogenous in cells; host or cells: monocytes
Description: Lipid raft fractionation: Lipid rafts were prepared as described (50). Monocytes (5×10^6) were lysed in 1 ml THE buffer (25 mM Tris, 150 mM NaCl, 5 mM EDTA) containing 1% Triton and incubated for 30 min on ice. Lysates were homogenized with 10 strokes of a dounce homogenizer, mixed with 2 ml of 80% sucrose in TNE buffer, and transferred to a centrifuge tube. Samples were overlaid with 4 ml of 30% sucrose and 2 ml of 5% sucrose in TNE. After centrifugation for 16 h at 180,000 g in a Beckman Coulter SW41Ti rotor, 0.8 ml fractions were collected from the top of the gradient. Each fraction was subjected to slot blot analysis to identify GM1-enriched rafts fraction using FITC-conjugated cholera toxin-B subunit (Sigma). Lipid raft fractions were precipitated with TCA and washed with 70% EtOH, then subjected to slot blot analysis or Western blot.

[2] = tested on: RAGE, LAIR-1, SHP-1, NF-κB signaling pathway; test: Immunoprecipitation, Western blot, phospho-immunoreceptor array and p65 nuclear translocation in monocytes; assay type: cell-based, human
Description: Immunofluorescence Microscopy: In situ proximal ligation assay was performed according to manufacturer's protocol (Duolink, Sigma). Following stimulation, human monocytes were washed three times with ice-cold PBS and were fixed with 4% (wt/vol) PFA for 1 hour at room temperature, seeded (2×10^5 cells) on slides using cytospin (Shandon), permeablized with chilled MeOH for 4 min and with PBS/0.1% (vol/vol) Triton X-100 and blocked for 1 h at room temperature. Cells were then incubated overnight with a primary antibody pair directed to rabbit anti-RAGE (ab3611, Abcam) and to mouse anti-LAIR-1 (BD Bioscience), respectively. The cells were incubated with corresponding PLA probes conjugated to oligonucleotides (mouse MINUS and rabbit PLUS), then followed by ligation and rolling circle amplification in close proximity. Images were acquired using AxioVision software and a confocal microscope (Olympus). Quantification was performed using Zen2 (Zeiss). […] Cells were washed three times with cold-PBS and fixed with 4% PFA and stained with PECy5-anti-human CD14 antibody (BD biosciences) or propidium iodide (PI). […] PI or DAPI was used for nuclear staining. […] After washing, cells were stained with Alexa Fluor 594 anti-rabbit IgG (Life Technologies), and mounted DAPI-containing medium. Images were acquired using an AxioImage Z1 (Zeiss) apotome enabled (Zeiss) Fluorescent-intensity analysis of the images was performed using Zen2 (Zeiss).
Immunoprecipitation and Western blot. Total protein extracts were prepared as described (22). Monocytes (2-5×10^6 cells/ml) were washed in ice-cold PBS and lysed in 1×RIPA buffer containing complete protease inhibitor mixture (Roche) and phosphatase inhibitor (Pierce) for 1 h on ice. For immunoprecipitation, anti-LAIR-1 antibody (BD Bioscience) or anti-RAGE antibody (Abcam) was incubated with the lysate overnight at 4° C. prior to being incubated with protein G-dynabeads (Life Technologies). Proteins were then separated by SDS-PAGE, transferred to nitrocellulose or PVDF membranes, and immunoblotted with appropriate antibodies. Bands were detected using the ECL reagent (Thermo Scientific) or using the Odyssey Infrared Imaging system (LI-COR) to detect secondary antibodies conjugated with Infrared 680 or 800.
Phospho-immunoreceptor array: Tyrosine phosphorylated LAIR-1 was determined by human phosphoimmunoreceptor array (Proteome Profiler Array; R&D systems) according to the manufacturer's protocol and as described (22). Phosphorylation levels of individual analytes were determined by average pixel density of duplicate spots; values were obtained after subtraction of background and were normalized to positive control spots.

T2 sequence (Q6GTX8 22-287): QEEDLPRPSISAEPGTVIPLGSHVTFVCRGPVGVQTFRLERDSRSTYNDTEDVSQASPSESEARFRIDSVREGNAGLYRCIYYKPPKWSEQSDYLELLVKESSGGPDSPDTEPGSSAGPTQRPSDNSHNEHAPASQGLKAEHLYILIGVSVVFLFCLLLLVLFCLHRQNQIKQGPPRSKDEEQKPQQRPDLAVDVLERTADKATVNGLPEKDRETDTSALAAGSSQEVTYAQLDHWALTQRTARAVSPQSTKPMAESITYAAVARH
T2 sequence (Q15109 23-404): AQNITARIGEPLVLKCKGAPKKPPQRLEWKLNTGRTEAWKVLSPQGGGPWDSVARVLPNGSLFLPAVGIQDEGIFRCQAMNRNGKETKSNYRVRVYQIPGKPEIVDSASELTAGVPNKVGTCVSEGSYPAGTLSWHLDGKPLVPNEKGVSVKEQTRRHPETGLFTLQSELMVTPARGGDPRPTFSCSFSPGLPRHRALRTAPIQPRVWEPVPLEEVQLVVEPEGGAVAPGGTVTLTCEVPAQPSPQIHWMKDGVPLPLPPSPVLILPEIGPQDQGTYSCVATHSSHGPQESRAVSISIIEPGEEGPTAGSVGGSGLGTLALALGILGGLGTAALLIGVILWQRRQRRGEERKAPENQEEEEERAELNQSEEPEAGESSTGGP

Substance: C1q: C1q purified from pooled normal human sera, obtained from Complement Technology
- binding to different redox states of HMGB1 (HMGB1; disulfide, all thiol, oxidized HMGB1): preferentially binding to the disulfide form of HMGB1
- Kd (HMGB1; read-out: KD of HMGB1 and C1q binding, 25° C., 1:1 binding ratio supposed): 200 nM
- localization of LAIR-1 and RAGE in lipid rafts [1]: LAIR-1 migrated to lipid rafts where LAIR-1 colocalized with RAGE
- phosphorylation of LAIR-1 [2]: induces phosphorylation of LAIR-1
- HMGB1-induced activation and nuclear translocation of NF-κB ([2]; P-IKKα, p65, 1 h): inhibited the downstream activation and nuclear translocation of NF-κB
- recruitment of SHP-1 to LAIR-1 ([2]; both HMGB1 and C1q present): more SHP-1 is recruited to LAIR-1
- HMGB1-induced phosphorylation of RAGE ([2]; in the presence of C1q): diminished
